These results are taken from patent US11808760B1, “System and methods for in vitro structural toxicity testing” (CURI BIO, INC., priority 2019, dated 2023).

Data set [1] relates to liver cells.
Data set [2] concerns liver cells. Nature of the data set: AI (CNN) structural toxicity assay, aspirin on liver cells (FIG. 6). Format: cell-based. An excerpt: In an exemplary embodiment of the subject technology, a series of 2-class neural network training steps may be used, where a separate model is created for each drug dose compared to its control. As will be appreciated, a high level of sensitivity in detecting structural changes will be generated. As a result, aspects of the subject technology successfully capture obvious phenotypes, such as cell damage and death, as well as subtle phenotypes, such as changes to sarcomere organization or distribution of mitochondria.
As detailed in the following sections, the input imaging data is processed and may be augmented before training deep neural networks. For each test condition, images from a well are dedicated for validation and the rest are used for training. The performance of each training may be used on the validation wells as the measure of structural change. […] One the other hand, if the achieved accuracy is high, it means that the trained neural network was able to differentiate between the drug-treated images at dose i versus the vehicle images, and the strength of the change is calculated from the distribution of class probabilities.
A 2-class deep neural network may be trained (530) for image classification. The higher layers of the neural network may be allowed to learn the image features. […]

Data set [3] relates to iPSC-derived hepatocytes. The data set can be described thus: AI (CNN) structural toxicity assay, validation z-factor versus dose (FIG. 7). Format: cell-based. To be noted: reference vehicle (DMSO), doses 0.01-30 uM, 18-layer residual network.
Description: When using multi-channel images, the channels may include brightfield images, and fluorescence images captured at different wavelengths in order to visualize different cellular structures. As one example of an experimental setup, the cells are iPSC-derived hepatocytes, the drug under investigation is tamoxifen (a drug with known liver toxicity), dose X is 0.01 uM, dose Y is 0.10 uM, dose Z is 1.00 uM, the cells are fixed and stained with phalloidin-conjugated fluorescent dyes, and the imaging is performed with an inverted fluorescence microscopy system, capturing multiple images at each individual well.
A 2-class deep neural network may be trained (530) for image classification. The higher layers of the neural network may be allowed to learn the image features. The training may be performed with an initial learning rate of 0.01 for 20 epochs and may be repeated three times. For each training session, the final neural network may be selected from the epoch with the highest validation accuracy.
To generate the input data to train the neural network, each image may be processed and augmented. […]

Consider `CC(=O)N[C@@H](CS)C(=O)O` [acetylcysteine], for which, in data set [1], the “structural damage of liver cells over time” value (from here on “structural damage … over time”) is on record as “little damage to the cells”.
Turning to `CC(=O)Oc1ccccc1C(=O)O` [aspirin], the “structural changes in the cells” value in data set [2] is “no, or minimal, structural changes”.
Turning to `COc1cccc2c1C(=O)c1c(O)c3c(c(O)c1C2=O)C[C@@](O)(C(=O)CO)C[C@@H]3O[C@H]1C[C@H](N)[C@H](O)[C@H](C)O1` [doxorubicin], the “structural damage … over time” value in data set [1] is recorded as “changes in the structural integrity of the cells”.
As to `CC/C(=C(\c1ccccc1)c1ccc(OCCN(C)C)cc1)c1ccccc1` [tamoxifen], the “dose at which validation z-factors show values above -1 (start of structural changes between drug-treated cells and reference cells)” value in data set [3] was found to be 5 µM. Further, the “structural damage … over time” value in data set [1] is given as “noticeable structural damage”.
